Source: patent US20170355691A1, “PESTICIDALLY ACTIVE HETEROCYCLIC DERIVATIVES WITH SULPHUR CONTAINING SUBSTITUENTS” (Syngenta Participations AG, priority 2015, published 2017)
Values belong to the compound of their own block, whether it stands above or below them.

Legend:
[1] = test system: Diabrotica balteata (corn root worm); experiment: Activity against Diabrotica balteata, maize sprouts (Example B3); assay type: in vivo; details: 96 h, L2 larvae on maize sprouts, 4 days after infestation, read-out: effect in at least one of the two categories (mortality or growth inhibition)
Description: Example B3: Activity Against Diabrotica balteata (Corn Root Worm)
Maize sprouts, placed on an agar layer in 24-well microtiter plates were treated with aqueous test solutions prepared from 10′000 ppm DMSO stock solutions by spraying. After drying, the plates were infested with L2 larvae (6 to 10 per well). The samples were assessed for mortality and growth inhibition in comparison to untreated samples 4 days after infestation. The following compounds gave an effect of at least 80% in at least one of the two categories (mortality or growth inhibition) at an application rate of 200 ppm: P1.1, P1.2, P1.6, P1.7, P1.8, P1.9, P1.10, P1.13, P1.14, P1.15, P1.16, P1.17 and P1.18.

[2] = test system: Tetranychus urticae (two-spotted spider mite); experiment: whole plant or invertebrate; assay type: in vivo; details: foliar, 192 h
Description: Example B8: Activity Against Tetranychus urticae (Two-Spotted Spider Mite)
Bean leaf discs on agar in 24-well microtiter plates were sprayed with aqueous test solutions prepared from 10′000 ppm DMSO stock solutions. After drying the leaf discs were infested with a mite population of mixed ages. The samples were assessed for mortality on mixed population (mobile stages) 8 days after infestation.

[3] = test system: Spodoptera littoralis (Egyptian cotton leaf worm); experiment: Activity against Spodoptera littoralis, cotton leaf disc spray (Example B1); assay type: in vivo; details: foliar, 72 h, L1 larvae on cotton leaf discs, 3 days after infestation, read-out: control in at least one of the three categories (mortality, anti-feedancy or growth inhibition)
Description: Example B1: Activity Against Spodoptera littoralis (Egyptian Cotton Leaf Worm)
Cotton leaf discs were placed on agar in 24-well microtiter plates and sprayed with aqueous test solutions prepared from 10′000 ppm DMSO stock solutions. After drying the leaf discs were infested with five L1 larvae. The samples were assessed for mortality, anti-feedant effect, and growth inhibition in comparison to untreated samples 3 days after infestation. Control of Spodoptera littoralis by a test sample is when at least one of mortality, anti-feedant effect, and growth inhibition is higher than the untreated sample. The following compounds gave an effect of at least 80% control in at least one of the three categories (mortality, anti-feedancy or growth inhibition) at an application rate of 200 ppm: P1.2, P1.3, P1.6, P1.7, P1.8, P1.9, P1.10, P1.12, P1.13, P1.14, P1.15, P1.16, P1.17 and P1.18.

[4] = test system: Plutella xylostella (diamond back moth); experiment: Activity against Plutella xylostella, artificial diet (Example B2); assay type: in vivo; details: 120 h, L2 larvae on artificial diet, 5 days after infestation, read-out: effect in at least one of the two categories (mortality or growth inhibition)
Description: Example B2: Activity Against Plutella xylostella (Diamond Back Moth)
24-well microtiter plates with artificial diet were treated with aqueous test solutions prepared from 10′000 ppm DMSO stock solutions by pipetting. After drying, the plates were infested with L2 larvae (10 to 15 per well). The samples were assessed for mortality and growth inhibition in comparison to untreated samples 5 days after infestation. The following compounds gave an effect of at least 80% in at least one of the two categories (mortality or growth inhibition) at an application rate of 200 ppm: P1.3, P1.6, P1.7, P1.8, P1.9, P1.13, P1.14, P1.15, P1.16, P1.17 and P1.18.

[5] = test system: Myzus persicae (green peach aphid); experiment: Activity against Myzus persicae, sunflower leaf disc spray (Example B5); assay type: in vivo; details: foliar, 144 h, mixed-age aphid population on sunflower leaf discs, 6 days after infestation
Description: Example B5: Activity Against Myzus persicae (Green Peach Aphid)
(§1) Sunflower leaf discs were placed on agar in a 24-well microtiter plate and sprayed with aqueous test solutions prepared from 10′000 ppm DMSO stock solutions. After drying, the leaf discs were infested with an aphid population of mixed ages. The samples were assessed for mortality 6 days after infestation.

[6] = test system: Euschistus heros (neotropical brown stink bug); experiment: Activity against Euschistus heros, soybean leaf spray (Example B7); assay type: in vivo; details: 120 h, N-2 nymphs on soybean leaf, 5 days after infestation
Description: Example B7: Activity Against Euschistus heros (Neotropical Brown Stink Bug)
Soybean leaf on agar in 24-well microtiter plates were sprayed with aqueous test solutions prepared from 10′000 ppm DMSO stock solutions. After drying the leaf were infested with N-2 nymphs. The samples were assessed for mortality 5 days after infestation.

[7] = test system: Bemisia tabaci (cotton white fly); experiment: Activity against Bemisia tabaci, cotton leaf disc spray (Example B6); assay type: in vivo; details: foliar, 144 h, adult white flies on cotton leaf discs, 6 days after incubation
Description: Example B6: Activity Against Bemisia tabaci (Cotton White Fly)
Cotton leaf discs were placed on agar in 24-well microtiter plates and sprayed with aqueous test solutions prepared from 10′000 ppm DMSO stock solutions. After drying the leaf discs were infested with adult white flies. The samples were checked for mortality 6 days after incubation.

[8] = test system: Thrips tabaci (onion thrips); experiment: Activity against Thrips tabaci, sunflower leaf disc spray (Example B9); assay type: in vivo; details: foliar, 144 h, mixed-age thrips population on sunflower leaf discs, 6 days after infestation
Description: Example B9: Activity Against Thrips tabaci (Onion Thrips)
as §1, with “in” for “in a”, “plates” for “plate”, “drying” for “drying,”, “a thrips” for “an aphid”

[9] = test system: Spodoptera littoralis (Egyptian cotton leaf worm); experiment: Activity against Spodoptera littoralis, systemic via lettuce roots in agar (Example B4); assay type: in vivo; details: 144 h, 12.5 ppm in agar, uptake by lettuce roots, eggs, 6 days after infestation, read-out: control in at least one of the three categories (mortality, anti-feedancy or growth inhibition)
From the text: Example B4: Activity Against Spodoptera littoralis (Egyptian Cotton Leaf Worm)
Test compounds were applied by pipette from 10′000 ppm DMSO stock solutions into 24-well plates and mixed with agar. Lettuce seeds were placed on the agar and the multi well plate was closed by another plate which contains also agar. After 7 days the roots have absorbed the compound and the lettuce has grown into the lid plate. The lettuce leafs were now cut off into the lid plate. Spodoptera eggs were pipetted through a plastic stencil on a humid gel blotting paper and the plate closed with it. The samples were assessed for mortality, anti-feedant effect and growth inhibition in comparison to untreated samples 6 days after infestation. The following compound gave an effect of at least 80% control in at least one of the three categories (mortality, anti-feedancy or growth inhibition) at an application rate of 12.5 ppm: P1.17 and P1.18.

Compound: CCSc1cc(C(F)(F)F)cnc1-n1ncc(-c2cccc(C(F)(F)F)c2)c1C [Compound P1.1, 3-ethylsulfanyl-2-[5-methyl-4-[3-(trifluoromethyl)phenyl]pyrazol-1-yl]-5-(trifluoromethyl)pyridine]
percent effect (mortality or growth inhibition) at 200 ppm [1]: ≥ 80%
mortality at 200 ppm [2]: ≥ 80%

Compound: CCS(=O)(=O)c1cc(C(F)(F)F)cnc1-n1ncc(-c2cccc(C(F)(F)F)c2)c1C [Compound P1.2, 3-ethylsulfonyl-2-[5-methyl-4-[3-(trifluoromethyl)phenyl]pyrazol-1-yl]-5-(trifluoromethyl)pyridine]
percent control (mortality, anti-feedant effect or growth inhibition) at 200 ppm [3]: ≥ 80%
percent effect (mortality or growth inhibition) at 200 ppm [1]: ≥ 80%

Compound: CCS(=O)(=O)c1cc(C(F)(F)F)cnc1-n1cc(-c2ccc(C(F)(F)F)cc2)cn1 [Compound P1.3, 3-ethylsulfonyl-5-(trifluoromethyl)-2-[4-[4-(trifluoromethyl)phenyl]pyrazol-1-yl]pyridine]
percent control (mortality, anti-feedant effect or growth inhibition) at 200 ppm [3]: ≥ 80%
percent effect (mortality or growth inhibition) at 200 ppm [4]: ≥ 80%

melting point: 113 to 114 °C
Compound: CCSc1cc(C(F)(F)F)cnc1-n1ncc(-c2ccc(C(F)(F)F)cc2)c1C [Compound P1.4]

melting point: 152 to 154 °C
Compound: CCS(=O)(=O)c1cc(C(F)(F)F)cnc1-n1ncc(-c2ccc(C(F)(F)F)cc2)c1C [Compound P1.5]

Compound: CCS(=O)(=O)c1cc(C(F)(F)F)cnc1-n1cc(-c2cccc(C(F)(F)F)c2)cn1 [Compound P1.6]
percent control (mortality, anti-feedant effect or growth inhibition) at 200 ppm [3]: ≥ 80%
percent effect (mortality or growth inhibition) at 200 ppm [4]: ≥ 80%
percent effect (mortality or growth inhibition) at 200 ppm [1]: ≥ 80%

Compound: CCS(=O)(=O)c1cc(C(F)(F)F)cnc1-n1cc(-c2ccc(C(F)(F)F)nc2)cn1 [Compound P1.7]
percent control (mortality, anti-feedant effect or growth inhibition) at 200 ppm [3]: ≥ 80%
percent effect (mortality or growth inhibition) at 200 ppm [4]: ≥ 80%
percent effect (mortality or growth inhibition) at 200 ppm [1]: ≥ 80%

Compound: CCS(=O)(=O)c1cc(C(F)(F)F)cnc1-n1cc(-c2cc(C(F)(F)F)ccn2)cn1 [Compound P1.8]
percent control (mortality, anti-feedant effect or growth inhibition) at 200 ppm [3]: ≥ 80%
percent effect (mortality or growth inhibition) at 200 ppm [4]: ≥ 80%
percent effect (mortality or growth inhibition) at 200 ppm [1]: ≥ 80%

Compound: CCS(=O)(=O)c1cc(C(F)(F)F)ccc1-n1cc(-c2cccc(C(F)(F)F)c2)cn1 [Compound P1.9]
percent control (mortality, anti-feedant effect or growth inhibition) at 200 ppm [3]: ≥ 80%
percent effect (mortality or growth inhibition) at 200 ppm [4]: ≥ 80%
percent effect (mortality or growth inhibition) at 200 ppm [1]: ≥ 80%

Compound: CCS(=O)(=O)c1cc(C(F)(F)F)ccc1-n1cc(-c2cc(C(F)(F)F)ccn2)cn1 [Compound P1.10, 2-[1-[2-ethylsulfonyl-4-(trifluoromethyl)phenyl]pyrazol-4-yl]-4-(trifluoromethyl)pyridine]
percent control (mortality, anti-feedant effect or growth inhibition) at 200 ppm [3]: ≥ 80%
percent effect (mortality or growth inhibition) at 200 ppm [1]: ≥ 80%
mortality at 200 ppm [5]: ≥ 80%

melting point: 181 to 182 °C
Compound: CCS(=O)(=O)c1cc(C(F)(F)F)cnc1-n1cc(-c2ccc(SC(F)(F)F)cc2)cn1 [Compound P1.11]

Compound: CCS(=O)(=O)c1cc(C(F)(F)F)cnc1-n1cc(-c2cccc(SC(F)(F)F)c2)cn1 [Compound P1.12]
percent control (mortality, anti-feedant effect or growth inhibition) at 200 ppm [3]: ≥ 80%

Compound: CCS(=O)(=O)c1cc(C(F)(F)F)ccc1-n1cc(-c2ccc(C(F)(F)F)cc2)cn1 [Compound P1.13]
percent control (mortality, anti-feedant effect or growth inhibition) at 200 ppm [3]: ≥ 80%
percent effect (mortality or growth inhibition) at 200 ppm [4]: ≥ 80%
percent effect (mortality or growth inhibition) at 200 ppm [1]: ≥ 80%
mortality at 200 ppm [6]: ≥ 80%

Compound: CCS(=O)(=O)c1cc(C(F)(F)F)ccc1-n1ncc(-c2ccc(C(F)(F)F)cc2)c1C [Compound P1.15, 1-[2-ethylsulfonyl-4-(trifluoromethyl)phenyl]-5-methyl-4-[4-(trifluoromethyl)phenyl]pyrazole]
percent control (mortality, anti-feedant effect or growth inhibition) at 200 ppm [3]: ≥ 80%
percent effect (mortality or growth inhibition) at 200 ppm [4]: ≥ 80%
percent effect (mortality or growth inhibition) at 200 ppm [1]: ≥ 80%
mortality at 200 ppm [5]: ≥ 80%
mortality at 200 ppm [7]: ≥ 80%
mortality at 200 ppm [8]: ≥ 80%

Compound: CCS(=O)(=O)c1cc(C(F)(F)F)ccc1-n1ncc(-c2cccc(C(F)(F)F)c2)c1C [Compound P1.16]
percent control (mortality, anti-feedant effect or growth inhibition) at 200 ppm [3]: ≥ 80%
percent effect (mortality or growth inhibition) at 200 ppm [4]: ≥ 80%
percent effect (mortality or growth inhibition) at 200 ppm [1]: ≥ 80%
mortality at 200 ppm [5]: ≥ 80%
mortality at 200 ppm [7]: ≥ 80%
mortality at 200 ppm [6]: ≥ 80%

Compound: CCS(=O)(=O)c1cc(C(F)(F)F)ccc1-n1cc(-c2cncc(C(F)(F)F)c2)cn1 [Compound P1.17]
percent control (mortality, anti-feedant effect or growth inhibition) at 200 ppm [3]: ≥ 80%
percent effect (mortality or growth inhibition) at 200 ppm [4]: ≥ 80%
percent effect (mortality or growth inhibition) at 200 ppm [1]: ≥ 80%
percent control (mortality, anti-feedant effect or growth inhibition) at 12.5 ppm [9]: ≥ 80%
mortality at 200 ppm [5]: ≥ 80%
mortality at 200 ppm [7]: ≥ 80%
mortality at 200 ppm [6]: ≥ 80%

Compound: CCS(=O)(=O)c1cc(C(F)(F)F)cnc1-n1cc(-c2cncc(C(F)(F)F)c2)cn1 [Compound P1.18]
percent control (mortality, anti-feedant effect or growth inhibition) at 200 ppm [3]: ≥ 80%
percent effect (mortality or growth inhibition) at 200 ppm [4]: ≥ 80%
percent effect (mortality or growth inhibition) at 200 ppm [1]: ≥ 80%
percent control (mortality, anti-feedant effect or growth inhibition) at 12.5 ppm [9]: ≥ 80%
mortality at 200 ppm [5]: ≥ 80%

melting point: 121 to 123 °C
Compound: CCSc1cccnc1-n1cc(-c2ccc(C(F)(F)F)nc2)cn1 [Compound P1.19, 3-ethylsulfanyl-2-[4-[6-(trifluoromethyl)-3-pyridyl]pyrazol-1-yl]pyridine]
